Source: patent US6737383B1, “Herbicidal oxadiazolidines” (priority 1999, dated 2004)

Key:
bedstraw = test: Test B pre/postemergence bedstraw; assay type: in vivo, Galium aparine; details: for Plant response rating, Bedstraw: scale of 0 to 10 where 0 is no effect and 10 is complete control
In short: (§1)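 Test chemicals in a non-phytotoxic solvent mixture with surfactant were sprayed preemergence onto planted seeds and postemergence onto plants 2 to 18 cm tall (1- to 4-leaf stage). After twelve to sixteen days in a greenhouse, injury was visually rated against untreated controls from 0 (no effect) to 10 (complete control).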

blackgrass = test: Test B pre/postemergence blackgrass; assay type: in vivo, Alopecurus myosuroides
In short: as §1

surinam grass = test: Test B pre/postemergence surinam grass; assay type: in vivo, Brachiaria decumbens
In short: as §1

cocklebur = test: Test B pre/postemergence cocklebur; assay type: in vivo, Xanthium strumarium
In short: as §1

corn = test: Test B pre/postemergence corn; assay type: in vivo, Zea mays
In short: as §1

crabgrass = test: Test B pre/postemergence crabgrass; assay type: in vivo, Digitaria sanguinalis
In short: as §1

giant foxtail = test: Test B pre/postemergence giant foxtail; assay type: in vivo, Setaria faberii
In short: as §1

morningglory = test: Test B pre/postemergence morningglory; assay type: in vivo, Ipomoea hederacea
In short: as §1

pigweed = test: Test B pre/postemergence pigweed; assay type: in vivo, Amaranthus retroflexus
In short: as §1

rape = test: Test B pre/postemergence rape; assay type: in vivo, Brassica napus
In short: as §1

soybean = test: Test B pre/postemergence soybean; assay type: in vivo, Glycine max
In short: as §1

sugar beet = test: Test B pre/postemergence sugar beet; assay type: in vivo, Beta vulgaris
In short: as §1

velvetleaf = test: Test B pre/postemergence velvetleaf; assay type: in vivo, Abutilon theophrasti
In short: as §1

wheat = test: Test B pre/postemergence wheat; assay type: in vivo, Triticum aestivum
In short: as §1

wild oat = test: Test B pre/postemergence wild oat; assay type: in vivo, Avena fatua
In short: as §1

purple nutsedge = test: Test B pre/postemergence purple nutsedge; assay type: in vivo, Cyperus rotundus
In short: as §1

[1] = Postemergence, Rate 125 g/ha, scale 0 to 10, 0 is no effect, 10 is complete control
[2] = Preemergence, Rate 250 g/ha, scale 0 to 10, 0 is no effect, 10 is complete control
[3] = Preemergence, Rate 500 g/ha, scale 0 to 10, 0 is no effect, 10 is complete control
[4] = Rate 62 g/ha, Postemergence, scale 0 to 10, 0 no effect, 10 complete control
[5] = Postemergence, Rate 250 g/ha, scale 0 to 10
[6] = Postemergence, Rate 500 g/ha, scale 0 to 10, 0 is no effect, 10 is complete control
[7] = Preemergence, Rate 62 g/ha, scale of 0 to 10 where 0 is no effect and 10 is complete control
[8] = Preemergence, Rate 125 g/ha, scale 0 to 10, 0 is no effect, 10 is complete control
[9] = Preemergence, Rate 500 g/ha, scale of 0 to 10 where 0 is no effect and 10 is complete control

CC(C)N(C(=O)n1oc(=O)n(CC2=CCCN(C)C2)c1=O)c1ccccc1 [Compound 497]
Bedstraw plant response rating (bedstraw; [1]): 0
Plant response rating, Bedstraw (bedstraw; Preemergence, Rate 62 g/ha): 0
Bedstraw plant response rating (bedstraw; [2]): 0
Bedstraw plant response rating (bedstraw; [3]): 0
Bedstraw plant response rating (bedstraw; [4]): 0
Blackgrass plant response rating (blackgrass; [1]): 0
Blackgrass plant response rating (blackgrass; [5]): 0
Plant response rating, Blackgrass (blackgrass; [6]): 0
Plant response rating, Blackgrass (blackgrass; [7]): 0
Blackgrass plant response rating (blackgrass; [8]): 0
Blackgrass plant response rating (blackgrass; [2]): 0
Blackgrass plant response rating (blackgrass; [9]): 0
Blackgrass plant response rating (blackgrass; [4]): 0
B. signalgrass plant response rating (surinam grass; [1]): 0
B. signalgrass plant response rating (surinam grass; Postemergence, Rate 250 g/ha, scale 0 to 10, 0 no effect, 10 complete control): 0
Plant response rating, B. signalgrass (surinam grass; [6]): 0
Plant response rating, B. signalgrass (surinam grass; [7]): 0
B. signalgrass plant response rating (surinam grass; [8]): 0
B. signalgrass plant response rating (surinam grass; [2]): 0
B. signalgrass plant response rating (surinam grass; [3]): 0
B. signalgrass plant response rating (surinam grass; [4]): 0
Cocklebur plant response rating (cocklebur; [1]): 0
Cocklebur plant response rating (cocklebur; [5]): 0
Plant response rating, Cocklebur (cocklebur; [6]): 0
Plant response rating, Cocklebur (cocklebur; [7]): 0
Cocklebur plant response rating (cocklebur; [8]): 0
Cocklebur plant response rating (cocklebur; [2]): 0
Cocklebur plant response rating (cocklebur; [9]): 0
Cocklebur plant response rating (cocklebur; [4]): 0
Corn plant response rating (corn; [1]): 0
Corn plant response rating (corn; [5]): 0
Plant response rating, Corn (corn; [6]): 0
Plant response rating, Corn (corn; [7]): 0
Corn plant response rating (corn; [8]): 0
Corn plant response rating (corn; [9]): 0
Corn plant response rating (corn; [4]): 0
Crabgrass plant response rating (crabgrass; [1]): 0
Crabgrass plant response rating (crabgrass; [5]): 0
Plant response rating, Crabgrass (crabgrass; [6]): 0
Plant response rating, Crabgrass (crabgrass; [7]): 0
Crabgrass plant response rating (crabgrass; [8]): 0
Crabgrass plant response rating (crabgrass; [9]): 0
Crabgrass plant response rating (crabgrass; [4]): 0
Giant foxtail plant response rating (giant foxtail; [1]): 0
Plant response rating, Giant foxtail (giant foxtail; [6]): 0
Plant response rating, Giant foxtail (giant foxtail; [7]): 0
Giant foxtail plant response rating (giant foxtail; [8]): 0
Giant foxtail plant response rating (giant foxtail; [9]): 0
Giant foxtail plant response rating (giant foxtail; [4]): 0
Morningglory plant response rating (morningglory; [1]): 0
Plant response rating, Morningglory (morningglory; [6]): 0
Plant response rating, Morningglory (morningglory; [7]): 0
Morningglory plant response rating (morningglory; [8]): 0
Morningglory plant response rating (morningglory; [9]): 0
Morningglory plant response rating (morningglory; [4]): 0
Redroot pigweed plant response rating (pigweed; [1]): 0
Plant response rating, Redroot pigweed (pigweed; [6]): 0
Plant response rating, Redroot pigweed (pigweed; [7]): 0
Redroot pigweed plant response rating (pigweed; [8]): 0
Redroot pigweed plant response rating (pigweed; [9]): 0
Redroot pigweed plant response rating (pigweed; [4]): 0
Rape plant response rating (rape; [1]): 0
Plant response rating, Rape (rape; [6]): 0
Plant response rating, Rape (rape; [7]): 0
Rape plant response rating (rape; [8]): 0
Rape plant response rating (rape; [9]): 0
Rape plant response rating (rape; [4]): 0
Soybean plant response rating (soybean; [1]): 1
Plant response rating, Soybean (soybean; [6]): 2
Plant response rating, Soybean (soybean; [7]): 0
Soybean plant response rating (soybean; [8]): 0
Soybean plant response rating (soybean; [9]): 0
Soybean plant response rating (soybean; [4]): 0
Sugarbeets plant response rating (sugar beet; [1]): 0
Plant response rating, Sugarbeets (sugar beet; [6]): 0
Plant response rating, Sugarbeets (sugar beet; [7]): 0
Sugarbeets plant response rating (sugar beet; [8]): 0
Sugarbeets plant response rating (sugar beet; [9]): 0
Sugarbeets plant response rating (sugar beet; [4]): 0
Velvetleaf plant response rating (velvetleaf; [1]): 0
Plant response rating, Velvetleaf (velvetleaf; [6]): 0
Plant response rating, Velvetleaf (velvetleaf; [7]): 0
Velvetleaf plant response rating (velvetleaf; [8]): 0
Velvetleaf plant response rating (velvetleaf; [9]): 0
Velvetleaf plant response rating (velvetleaf; [4]): 0
Wheat plant response rating (wheat; [1]): 0
Plant response rating, Wheat (wheat; [6]): 0
Plant response rating, Wheat (wheat; [7]): 0
Wheat plant response rating (wheat; [8]): 0
Wheat plant response rating (wheat; [9]): 0
Wheat plant response rating (wheat; [4]): 0
Wild oats plant response rating (wild oat; [1]): 0
Plant response rating, Wild oats (wild oat; [6]): 0
Plant response rating, Wild oats (wild oat; [7]): 0
Wild oats plant response rating (wild oat; [8]): 0
Wild oats plant response rating (wild oat; [9]): 0
Wild oats plant response rating (wild oat; [4]): 0
Nutsedge plant response rating (purple nutsedge; [1]): 0
Plant response rating, Nutsedge (purple nutsedge; [6]): 0
Plant response rating, Nutsedge (purple nutsedge; [7]): 0
Nutsedge plant response rating (purple nutsedge; [8]): 0
Nutsedge plant response rating (purple nutsedge; [9]): 0
Nutsedge plant response rating (purple nutsedge; [4]): 0

CC(C)N(C(=O)n1oc(=O)n(CCC2OCCCO2)c1=O)c1ccc(F)cc1F [Compound 502]
Plant response rating, Bedstraw (bedstraw; Preemergence, Rate 62 g/ha): 10
Bedstraw plant response rating (bedstraw; [2]): 10
Bedstraw plant response rating (bedstraw; [3]): 10
Plant response rating, Blackgrass (blackgrass; [7]): 10
Blackgrass plant response rating (blackgrass; [8]): 10
Blackgrass plant response rating (blackgrass; [2]): 10
Blackgrass plant response rating (blackgrass; [9]): 10
Plant response rating, B. signalgrass (surinam grass; [7]): 6
B. signalgrass plant response rating (surinam grass; [8]): 9
B. signalgrass plant response rating (surinam grass; [2]): 10
B. signalgrass plant response rating (surinam grass; [3]): 10
Plant response rating, Cocklebur (cocklebur; [7]): 0
Cocklebur plant response rating (cocklebur; [8]): 0
Cocklebur plant response rating (cocklebur; [2]): 0
Cocklebur plant response rating (cocklebur; [9]): 9
Plant response rating, Corn (corn; [7]): 0
Corn plant response rating (corn; [8]): 8
Corn plant response rating (corn; [9]): 9
Plant response rating, Crabgrass (crabgrass; [7]): 10
Crabgrass plant response rating (crabgrass; [8]): 10
Crabgrass plant response rating (crabgrass; [9]): 10
Plant response rating, Giant foxtail (giant foxtail; [7]): 10
Giant foxtail plant response rating (giant foxtail; [8]): 10
Giant foxtail plant response rating (giant foxtail; [9]): 10
Plant response rating, Morningglory (morningglory; [7]): 0
Morningglory plant response rating (morningglory; [8]): 2
Morningglory plant response rating (morningglory; [9]): 4
Plant response rating, Redroot pigweed (pigweed; [7]): 9
Redroot pigweed plant response rating (pigweed; [8]): 9
Redroot pigweed plant response rating (pigweed; [9]): 10
Plant response rating, Rape (rape; [7]): 2
Rape plant response rating (rape; [8]): 3
Rape plant response rating (rape; [9]): 9
Plant response rating, Soybean (soybean; [7]): 0
Soybean plant response rating (soybean; [8]): 4
Soybean plant response rating (soybean; [9]): 5
Plant response rating, Sugarbeets (sugar beet; [7]): 0
Sugarbeets plant response rating (sugar beet; [8]): 2
Sugarbeets plant response rating (sugar beet; [9]): 7
Plant response rating, Velvetleaf (velvetleaf; [7]): 0
Velvetleaf plant response rating (velvetleaf; [8]): 5
Velvetleaf plant response rating (velvetleaf; [9]): 8
Plant response rating, Wheat (wheat; [7]): 0
Wheat plant response rating (wheat; [8]): 3
Wheat plant response rating (wheat; [9]): 7
Plant response rating, Wild oats (wild oat; [7]): 9
Wild oats plant response rating (wild oat; [8]): 9
Wild oats plant response rating (wild oat; [9]): 10
Plant response rating, Nutsedge (purple nutsedge; [7]): 0
